According to paper PMC5790795, “N-Acetylmuramic Acid (MurNAc) Auxotrophy of the Oral Pathogen Tannerella forsythia: Characterization of a MurNAc Kinase and Analysis of Its Role in Cell Wall Metabolism” (Frontiers in Microbiology, 2018):

Molecular target: T1, Tf_MurK (rTf_MurK; Tanf_08380) (Tannerella forsythia, UniProt G8UQH1)
T1 construct: gene BFO_0034
T1 sequence (G8UQH1 19-302): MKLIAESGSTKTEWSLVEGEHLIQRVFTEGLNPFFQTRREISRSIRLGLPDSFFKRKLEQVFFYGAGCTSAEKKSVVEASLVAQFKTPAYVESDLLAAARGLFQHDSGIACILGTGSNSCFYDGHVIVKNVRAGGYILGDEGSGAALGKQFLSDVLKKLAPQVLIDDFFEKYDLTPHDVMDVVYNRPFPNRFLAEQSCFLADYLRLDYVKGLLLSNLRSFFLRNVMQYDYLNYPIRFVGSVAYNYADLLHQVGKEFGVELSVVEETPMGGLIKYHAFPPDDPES
Experiment: coupled pyruvate kinase / lactate dehydrogenase assay, NADH at […] nm
Assay type: biochemical
Conditions: ATP, 10 mM MgCl2, 50 mM phosphate pH 7.0, 20 °C; substrate inhibition constant

CC(=O)N[C@H]1C(O)O[C@H](CO)[C@@H](O)[C@@H]1O[C@H](C)C(=O)O (stereo partly shown) [MurNAc]
Ki(S): 4.2 mM
